The text below walks through data of patent US9651566B2, “Method for determining the propensity for calcification” (Rheinisch-Westfälische Technische Hochschule Aachen, priority 2011, dated 2017).

The test system of assay [1] is transition of primary CPPs into secondary CPPs. In words: Nephelometer assay in the presence of serum. The format is biochemical, human. Conditions: for transition rate of primary CPPs into secondary CPPs (T50): in the presence of the substance, cf. FIG. 2A. As to the method:
Stock Solutions: 1. NaCl-solution: NaCl 140 mM, 2. Calcium solution: CaCl2 40 mM+Hepes 100 mM+NaCI 140 mM, pH adjusted with NaOH 10 mM to 7.40 at 37° C., 3. […] Na2HP04 19.44 mM+NaH2PO4 4.56 mM+Hepes 100 mM+NaCI 140 mM, pH adjusted with NaOH 10 mM to 7.40 at 37° C. […] These pipetting steps were performed in the following order: 1. NaCl-solution: 20 μl/well, 2. serum 80 μl/well, 3. shaking for 1 minute, 4. phosphate solution 50 μl/well, 5. shaking for 1 minute, 6. calcium solution 50 μl/well, shaking for 1 minute. Air bubbles in the wells were disintegrated with a pocket lighter and the 96-well covered with a […] adhesive sealing film for microplates. […] Assay conditions and Nephelostar® settings: measurement in a thermo constant room at 34.5° C. with the internal radiation of the device turned off. This led to an infernal measurement temperature of 36.5° C. to 37° C. The Nephelostar® was operated and controlled via the Nephelostar provider's Galaxy Software on a Windows Computer platform. The assay was performed with 200 cycles of 1.5 seconds measurement time per well and a position delay of 0.1 seconds in horizontal plate reading mode, adding up to a cycle time of 180 seconds/cycle for our Standard assay. This adds up to a total assay run time of 10 hours per assay. […] After completion of the run, data were transferred to Excel® and transposed from lines into columns. Data columns were copied into the GraphPad Prism® program to generate an XY-graph. Data were then processed by calculating nonlinear regression in the “log(agonist) vs. response-variable slope (four Parameters)” mode using the “robust fit” fitting method. The resulting values obtained for T50 and RNUT50 were further processed as required. We chose physiological conditions for temperature (37° C.) and pH (7.40 at 37° C.), and designed the assay for a final volume of 200 μl per well. These 200 μl consisted of 20 μl NaCl 140 mM, 80 μl serum, 50 μl phosphate 24 mM and 50 μl calcium 40 mM solution which were mixed in this order. […]

Assay [2] shares this test system. In words: Nephelometry in the absence of serum. The format is biochemical. Conditions: FIG. 6A.

On to `[Mg+2]` [magnesium], for which, in assay [1], the “transition rate of primary CPPs into secondary CPPs (T50)” value was “delayed”.
For `O=S([O-])([O-])=S.[Na+].[Na+]` [sodium thiosulfate], the “impact on the assay” value in assay [1] (spiked to serum in amounts of up to 40 mM) is on record as “did not have any impact”.
With phosphate, in assay [1], the “transition rate of primary CPPs into secondary CPPs (T50)” value is listed as “accelerated”.

B1: fetuin A: the strongest intrinsic serum calcification inhibitor (protein, UniProt P02765 19-300; P02765 341-367, looked up)
Alpha-2-HS-glycoprotein chain … 1: APHGPGLIYRQPNCDDPETEEAALVAIDYINQNLPWGYKHTLNQIDEVKVWPQQPSGELFEIEIDTLETTCHVLDPTPVARCSVRQLKEHAVEGDCDFQLLKLDGKFSVVYAKCDSSPDSAEDVRKVCQDCPLLAPLNDTRVVHAAKAALAAFNAQNNGSNFQLEEISRAQLVPLPPSTYVEFTVSGTDCVAKEATEAAKCNLLAEKQYGFCKATLSEKLGGAEVAVTCMVFQTQPVSSQPQPEGANEAVPTPVVDPDAPPSPPLGAPGLPPAGSPPDSHVL
Alpha-2-HS-glycoprotein chain … 2: TVVQPSVGAAAGPVVPPCPGRIRHFKV
For B1, the “influence on the assay (spiked serum components)” value in assay [2] was “significantly influences the assay”.
